Experimental data published in US6642392B1 (priority 1997, dated 2003).
Read-outs that look alike come from different tables or passages of the source.

Assays:
Assay type in all cases: in vivo
[1] = tested on: Eiysiphe graminis f. sp. tritici; assay: Test A: wheat powdery mildew, preventive spray on wheat seedlings; conditions: for Test A disease control rating: wheat powdery mildew; for Test A disease control rating (100 = 100% disease control, 0 = no disease control): wheat seedlings sprayed to run-off, inoculated the following day, rating relative to controls, unmarked compounds (standard test rate)
Outline: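 Compounds (3% acetone, 250 ppm Trem 014) sprayed to run-off on wheat seedlings, inoculated next day with spore dust. Incubated 7 days at 20° C before disease rating, 0–100% control relative to untreated controls.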

Botrytis cinerea = assay: Test E: gray mold, preventive spray on cucumber seedlings; conditions: for Test E disease control rating: gray mold on cucumber; for Test E disease control rating (100 = 100% disease control, 0 = no disease control): cucumber seedlings sprayed to run-off, inoculated the following day, rating relative to controls, unmarked compounds (standard test rate)
Outline: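 Compounds in 3% acetone were suspended with 250 ppm Trem 014 surfactant and sprayed to run-off on cucumber seedlings. B. cinerea spores were inoculated next day, then 48 h saturated humidity at 20° C and 5 days at 20° C. Disease control rated 0–100% versus controls.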

Phytophthora infestans = conditions: for Test D disease control rating: tomato late blight; for Test D disease control rating (100 = 100% disease control, 0 = no disease control): tomato seedlings sprayed to run-off, inoculated the following day, rating relative to controls, unmarked compounds (standard test rate)
Pyricularia oryzae = conditions: for Test C disease control rating: rice blast; for Test C disease control rating (100 = 100% disease control, 0 = no disease control): rice seedlings sprayed to run-off, inoculated the following day, rating relative to controls, unmarked compounds (standard test rate)
Puccinia recondita = assay: Test B: wheat leaf rust, preventive spray on wheat seedlings; conditions: for Test B disease control rating: wheat leaf rust; for Test B disease control rating (100 = 100% disease control, 0 = no disease control): wheat seedlings sprayed to run-off, inoculated the following day, rating relative to controls, unmarked compounds (standard test rate)
Outline: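 Wheat seedlings were sprayed to run-off with compound (3% acetone, 250 ppm Trem 014), then inoculated with P. recondita spores the next day. They were held 24 h saturated at 20 °C, then 6 days at 20 °C. Ratings are 0–100% disease control versus controls.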

[2] = 100 = 100% disease control, 0 = no control relative to controls, unmarked entries (standard test concentration)
[3] = 100 = 100% disease control, 0 = no control, unmarked entries (standard test concentration)

Compound | Test A disease control rating (100 = 100% disease control, 0 = no disease control) [1] [%] | Test E disease control rating (100 = 100% disease control, 0 = no disease control) (Botrytis cinerea) [%] | Test D disease control rating (100 = 100% disease control, 0 = no disease control) (Phytophthora infestans) [%] | Test C disease control rating (100 = 100% disease control, 0 = no disease control) (Pyricularia oryzae) [%] | Test B disease control rating (100 = 100% disease control, 0 = no disease control) (Puccinia recondita) [%] | further results
CC(COc1ccccc1I)NC(=O)C(C#N)C(C)(C)C (mixture of isomers) [11b] | – | – | – | – | – | Test A disease control rating [1, 2]: 77%; Test E disease control rating (Botrytis cinerea; [3]): 0%; Test D disease control rating (Phytophthora infestans; [3]): 23%; Test C disease control rating (Pyricularia oryzae; [3]): 99%; Test B disease control rating (Puccinia recondita; [3]): 85%
CC(C)(C)C(C#N)C(=O)NC/C=C/c1ccc(Cl)cc1Cl (racemic) [compound 274] | 61 | 58 | 23 | 74 | 28 | –
CCC1(C(=O)NC(C)C=Cc2ccc(F)cc2)C(C)C1(Cl)Cl (mixture of isomers) [compound 261] | 0 | 0 | 54 | 100 | 0 | –
CC(C)(C)C(C#N)C(=O)NCCCn1c(C#N)cc(Cl)c1Cl (racemic) [compound 55] | – | – | – | – | – | Test A disease control rating [1, 2]: 0%; Test E disease control rating (Botrytis cinerea; [3]): 0%; Test D disease control rating (Phytophthora infestans; [3]): 0%; Test C disease control rating (Pyricularia oryzae; [3]): 85%; Test B disease control rating (Puccinia recondita; [3]): 0%
C=CCC(C#N)C(=O)NC(C)C(Oc1cc(F)ccc1C#N)c1ccccc1 (mixture of isomers) [compound 284] | 0 | 0 | 0 | 99 | 0 | –
CCC1(C(=O)NC(C)COc2ccc(Cl)c(Cl)c2Cl)C(C)C1(Cl)Cl (stereo not drawn) [compound 243] | 38 | 0 | 74 | 74 | 0 | –
CCCc1cccc(C#N)c1OCC(C)NC(=O)C(C#N)C(C)C(C)(C)C (mixture of isomers) [compound 276] | 0 | 94 | 0 | 0 | 0 | –
C#CC(C)(C=C)C(C#N)C(=O)NC(C)COc1cc(F)ccc1Cl (mixture of isomers) [compound 303] | 0 | 0 | 100 | 99 | 0 | –
CCC1(C(=O)NC(C)COc2c(F)ccc(F)c2F)C(C)C1(Cl)Cl (stereo not drawn) [compound 233] | 62 | 6 | 9 | 94 | 0 | –
CC(COc1ccccc1C(F)(F)F)NC(=O)C1(C)CC1(Cl)Cl (mixture of isomers) [compound 312] | 0 | 0 | 82 | 0 | 0 | –
C[C@H](COc1ccc(F)c(Cl)c1)NC(=O)C(C#N)C(C)(C)C (single isomer, unassigned) [183b] | – | – | – | – | – | Test A disease control rating [1, 2]: 86%; Test E disease control rating (Botrytis cinerea; [3]): 69%; Test D disease control rating (Phytophthora infestans; [3]): 35%; Test C disease control rating (Pyricularia oryzae; [3]): 94%; Test B disease control rating (Puccinia recondita; [3]): 28%
CC(C=Cc1cc(F)ccc1F)NC(=O)C(C#N)C(C)(C)C (single isomer, unassigned) [229a] | 0 | 55 | 0 | 100 | 0 | –
C[C@H](COc1ccc(F)c(F)c1Br)NC(=O)C(C#N)C(C)(C)C (single isomer, unassigned) [187b] | – | – | – | – | – | Test A disease control rating [1, 2]: 77%; Test E disease control rating (Botrytis cinerea; [3]): 6%; Test D disease control rating (Phytophthora infestans; [3]): 91%; Test C disease control rating (Pyricularia oryzae; [3]): 94%; Test B disease control rating (Puccinia recondita; [3]): 68%
CCC(=CCNC(=O)C1(CC)C(C)C1(Cl)Cl)c1cc(Cl)ccc1Cl (stereo not drawn) [compound 262] | 98 | 0 | 99 | 53 | 0 | –
CC(COc1ccccc1)NC(=O)C1(C)C(C)C1(Cl)Cl (mixture of isomers) [compound 310] | 84 | 18 | 0 | 53 | 25 | –
Cc1c(Br)cc(C#N)n1CCC(C)NC(=O)C(C#N)C(C)C(C)(C)C (mixture of isomers) [compound 73] | – | – | – | – | – | Test A disease control rating [1, 2]: 30%; Test E disease control rating (Botrytis cinerea; [3]): 11%; Test D disease control rating (Phytophthora infestans; [3]): 0%; Test C disease control rating (Pyricularia oryzae; [3]): 53%; Test B disease control rating (Puccinia recondita; [3]): 28%
C[C@H](COc1cccc(Cl)c1Cl)NC(=O)C(C#N)C(C)(C)C (single isomer, unassigned) [31a] | – | – | – | – | – | Test A disease control rating [1, 2]: 62%; Test E disease control rating (Botrytis cinerea; [3]): 0%; Test D disease control rating (Phytophthora infestans; [3]): 51%; Test C disease control rating (Pyricularia oryzae; [3]): 74%; Test B disease control rating (Puccinia recondita; [3]): 68%
C=CC(C)(CF)C(C#N)C(=O)NC(C)COc1cc(F)ccc1F (mixture of isomers) [compound 218] | 86 | 0 | 17 | 100 | 68 | –
Cc1c(Cl)cc(C#N)n1OCC(C)NC(=O)C(C#N)C(C)C(C)(C)C (mixture of isomers) [71b] | – | – | – | – | – | Test A disease control rating ([1]; tested at 100 ppm): 0%; Test E disease control rating (Botrytis cinerea; tested at 100 ppm): 0%; Test D disease control rating (Phytophthora infestans; tested at 100 ppm): 19%; Test C disease control rating (Pyricularia oryzae; tested at 100 ppm): 0%; Test B disease control rating (Puccinia recondita; tested at 100 ppm): 0%
C=CC(C)(CC)C(C#N)C(=O)NC(C)COc1cc(F)ccc1F (mixture of isomers) [compound 296] | 0 | 0 | 24 | 100 | 0 | –
CCC1(C(=O)NC(C)C=Cc2cc(F)ccc2F)C(C)C1(Cl)Cl (single isomer, unassigned) [267a] | 78 | 55 | 0 | 97 | 0 | –
CCC1(C(=O)NC(C)COc2cccc(CF)c2)C(C)C1(Cl)Cl (mixture of isomers) [compound 102] | – | – | – | – | – | Test A disease control rating ([1]; tested at 40 ppm): 60%; Test E disease control rating (Botrytis cinerea; tested at 40 ppm): 0%; Test D disease control rating (Phytophthora infestans; tested at 40 ppm): 0%; Test C disease control rating (Pyricularia oryzae; tested at 40 ppm): 0%; Test B disease control rating (Puccinia recondita; tested at 40 ppm): 0%
CC(COc1cc(Cl)ccc1Cl)NC(=O)C(C#N)C(C)C(C)(C)C (mixture of isomers) [compound 62] | – | – | – | – | – | Test A disease control rating ([1]; tested at 40 ppm): 74%; Test E disease control rating (Botrytis cinerea; tested at 40 ppm): 0%; Test D disease control rating (Phytophthora infestans; tested at 40 ppm): 0%; Test C disease control rating (Pyricularia oryzae; tested at 40 ppm): 52%; Test B disease control rating (Puccinia recondita; tested at 40 ppm): 0%
C[C@H](COc1ccc(Cl)cc1F)NC(=O)C(C#N)C(C)(C)C (single isomer, unassigned) [36a] | – | – | – | – | – | Test A disease control rating [1, 2]: 0%; Test E disease control rating (Botrytis cinerea; [3]): 0%; Test D disease control rating (Phytophthora infestans; [3]): 89%; Test C disease control rating (Pyricularia oryzae; [3]): 99%; Test B disease control rating (Puccinia recondita; [3]): 27%
